{"source": "patent US5770734A", "about": "“N-substituted-2-aminoquinolines useful for treating hypofunction of the cholinergic system” (American Home Products Corporation, priority 1992, dated 1998)", "key": {"[1]": {"target": "T1, M2 receptors (Rattus norvegicus, UniProt P10980)", "T1 sequence (P10980 1-466)": "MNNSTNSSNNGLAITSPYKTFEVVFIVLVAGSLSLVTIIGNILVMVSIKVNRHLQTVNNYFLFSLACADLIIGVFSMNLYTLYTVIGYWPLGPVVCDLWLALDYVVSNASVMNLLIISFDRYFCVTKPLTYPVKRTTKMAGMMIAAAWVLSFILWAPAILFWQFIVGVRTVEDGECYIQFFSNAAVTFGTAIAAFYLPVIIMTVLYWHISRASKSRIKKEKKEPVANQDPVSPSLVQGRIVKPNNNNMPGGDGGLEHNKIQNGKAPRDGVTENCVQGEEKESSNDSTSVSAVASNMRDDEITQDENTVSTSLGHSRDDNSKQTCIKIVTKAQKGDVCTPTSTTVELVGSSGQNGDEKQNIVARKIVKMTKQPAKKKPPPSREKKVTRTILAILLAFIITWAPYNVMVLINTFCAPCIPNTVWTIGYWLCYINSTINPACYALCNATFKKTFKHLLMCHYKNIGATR", "experiment": "biochemical", "assay_type": "binding"}, "[2]": {"target": "T2, M1 muscarinic receptor (Rattus norvegicus, UniProt P08482)", "T2 sequence (P08482 1-460)": "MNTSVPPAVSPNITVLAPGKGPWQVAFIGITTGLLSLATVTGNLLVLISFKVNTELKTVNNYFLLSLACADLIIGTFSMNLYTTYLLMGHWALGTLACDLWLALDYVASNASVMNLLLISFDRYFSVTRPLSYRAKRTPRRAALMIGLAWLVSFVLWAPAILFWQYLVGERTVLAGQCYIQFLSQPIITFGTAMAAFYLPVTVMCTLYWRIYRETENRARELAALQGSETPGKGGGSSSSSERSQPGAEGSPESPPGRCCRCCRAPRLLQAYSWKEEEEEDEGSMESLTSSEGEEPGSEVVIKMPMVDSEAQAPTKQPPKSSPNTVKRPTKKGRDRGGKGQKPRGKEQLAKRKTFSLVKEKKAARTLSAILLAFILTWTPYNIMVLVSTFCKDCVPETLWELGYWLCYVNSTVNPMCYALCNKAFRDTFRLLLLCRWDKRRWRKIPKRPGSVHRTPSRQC", "experiment": "M1 receptor binding ([^3 H]-pirenzepine)", "parameters": "species or system rat (male Sprague-Dawley)", "protocol": "Compounds are tested for their ability to affect M1 muscarinic binding through use of [^3 H]-pirenzepine ([^3 H]PZ) as a prototypic M1 receptor ligand. Male Sprague-Dawley (Charles River) rats are used. Dose selection is typically in the concentration range of 10^-9 to 10^-4 M. Test and reference compounds are dissolved and diluted in water or ethanol and are then added to the assay buffer. The appropriate vehicle is added to the assay buffer for control testing.\nThe rats (approximately 300 gm body weight) have free access to food and water and are housed in groups of four to six. On the test day, the rats are euthanized by decapitation and brain tissue is dissected and homogenized using a hand-held teflon-coated pestle, in 20 volumes of 0.32M sucrose (20 strokes at 4° C.). After centrifugation (747×g for 10 minutes at 4° C.), the resultant supernatant is decanted and recentrifuged (18677×g for 20 minutes at 4° C.). The resultant pellet is resuspended in the original volume of 0.32M sucrose and frozen. After thawing, the suspension is diluted (1:1 v/v) with 10 mM Na2 HPO4 /KH2 PO4 buffer (pH=7.4). [^3 H]PZ (0.5 nM, 0.04 μCi) is then incubated with a 100 μl sample of the tissue suspension in the above buffer (1 ml final volume, including a 10 μl sample of test compound or vehicle). […] After 60 minutes of incubation at 25° C. (in the dark), the binding is terminated by vacuum filtration onto Whatman GF/B filters (pre-soaked for 60 minutes in 0.1% (w/v) polyethylenimine to reduce non-specific binding). After three washes with the previously mentioned buffer (4° C., 3 ml/wash), the vacuum is allowed to run for two minutes before the filter-trapped radioactivity is assayed by liquid scintillation spectroscopy.\nData are presented as the percent inhibition ([control-test]/control×100%) or enhancement ([test-control]/control×100%) of [^3 H]PZ binding by the test or reference compound. The IC50 value (the drug concentration which causes a 50% inhibition of specific [^3 H]PZ binding) is calculated through the use of the EDOSE program (with probit transformation written by a person for use in STAT80). Increases in [^3 H]PZ are reported as percent increase (versus control) for a given test drug concentration."}, "[3]": {"system": "M2 receptors", "experiment": "biochemical", "assay_type": "binding", "details": "Table 1; ratio of M2 IC50 to M1 IC50"}, "[4]": {"system": "scopolamine-induced hyperactivity, a proposed muscarinic M1 -mediated effect", "experiment": "Scopolamine-induced hyperactivity (locomotor activity)", "assay_type": "in vivo, rat", "details": "for Total activity: N=10", "protocol": "Compounds were evaluated for the ability to attenuate scopolamine-induced hyperactivity, a proposed muscarinic M1 -mediated effect. Animals were permitted to habituate for 30 minutes in locomotor activity chambers (Digiscan, Omnitech; Columbus, Ohio) in which infrared detectors were used to measure movement in 3 axes. The animals were then injected i.p. with vehicle alone, scopolamine alone (1.7 mg/kg) or both scopolamine and one dose of the test compound. Animals were then replaced in the chambers and locomotor activity was measured for an additional 1 hour period. Total activity measures (vertical+horizintal movements) were collected and statistically analyzed in four 15 minute periods."}, "[5]": {"details": "Table 1, rat brain tissue, [^3 H]PZ 0.5 nM, read-out: ^3 H-Pirenzepine M1 IC50"}}, "note": "Counter-ions that a name gives are not always drawn. Like-named read-outs stand apart in the source and are kept apart here.", "data": [{"compound": "3-[[[(3-chlorophenyl)amino]carbonyl]oxy]-N,N,N-trimethyl-1-propynaminium chloride [reference compound]", "values": [{"measurement": "IC50", "setting": "[1]; typical results, reference drugs, read-out: IC50, [^3 H]QNB binding (M2)", "result": 42, "unit": "µM"}, {"measurement": "IC50", "setting": "[2]; typical results, reference drugs, read-out: IC50, [^3 H]PZ binding (M1)", "result": 1300, "unit": "nM"}]}, {"compound": "Cl.Cl.c1ccc2nc(NCCCN3CCOCC3)ccc2c1", "note": "[Example 2, N-[3-(4-Morpholinyl)propyl]-2-quinolinamine dihydrochloride]", "values": [{"measurement": "M2/M1", "setting": "[3]", "result": 46}, {"measurement": "IC50", "setting": "[1]; read-out: ^3 H-QNB M2 IC50", "result": 116, "unit": "µM"}, {"measurement": "IC50", "setting": "[2]; [5]", "result": 2500, "unit": "nM"}]}, {"compound": "Cc1cc(NCCCN2CCN(C)CC2)nc2ccccc12", "note": "[Example 3, 4-Methyl-N-[3-(4-methyl-1-piperazinyl)propyl]-2-quinolinamine (E)-2-butenedioate (1:2) hemihydrate]", "values": [{"measurement": "M2/M1", "setting": "[3]", "result": 46}, {"measurement": "IC50", "setting": "[1]; read-out: ^3 H-QNB M2 IC50", "result": 28, "unit": "µM"}, {"measurement": "IC50", "setting": "[2]; [5]", "result": 600, "unit": "nM"}]}, {"compound": "Cc1cc(NCCCCN2CCOCC2)nc2ccccc12", "note": "[Example 4, 4-Methyl-N-[4-(4-morpholinyl)butyl]-2-quinolinamine (E)-2-butenedioate (1:1.15)]", "values": [{"measurement": "M2/M1", "setting": "[3]", "result": 41}, {"measurement": "IC50", "setting": "[1]; read-out: ^3 H-QNB M2 IC50", "result": 22, "unit": "µM"}, {"measurement": "IC50", "setting": "[2]; [5]", "result": 540, "unit": "nM"}]}, {"compound": "Cc1cc(NCCN2CCOCC2)nc2ccccc12", "note": "[Example 5, 4-Methyl-N-[2-(4-morpholinyl)ethyl]-2-quinolinamine (E)-2-butenedioate (3:2) quarter hydrate]", "values": [{"measurement": "M2/M1", "setting": "[3]", "result": 21}, {"measurement": "IC50", "setting": "[1]; read-out: ^3 H-QNB M2 IC50", "result": 200, "unit": "µM"}, {"measurement": "IC50", "setting": "[2]; [5]", "result": 9700, "unit": "nM"}]}, {"compound": "Cc1cc(NCCCCN2CCN(C)CC2)nc2ccccc12", "note": "[Example 6, 4-Methyl-N-[4-(4-methyl-1-piperazinyl)butyl]-2-quinolinamine (E)-2-butenedioate (1:2) one and three quarter hydrate]", "values": [{"measurement": "M2/M1", "setting": "[3]", "result": 15}, {"measurement": "IC50", "setting": "[1]; read-out: ^3 H-QNB M2 IC50", "result": 5.5, "unit": "µM"}, {"measurement": "IC50", "setting": "[2]; [5]", "result": 370, "unit": "nM"}]}, {"compound": "Cc1cc(NCCCN2CCCC2=O)nc2ccccc12", "note": "[Example 7, 4-Methyl-N-[3-(1-pyrrolidin-2-on)propyl]-2-quinolinamine hydrochloride three-quarter hydrate]", "values": [{"measurement": "M2/M1", "setting": "[3]", "result": 15}, {"measurement": "IC50", "setting": "[1]; read-out: ^3 H-QNB M2 IC50", "result": 20, "unit": "µM"}, {"measurement": "IC50", "setting": "[2]; [5]", "result": 1300, "unit": "nM"}]}, {"compound": "Cc1cc(NCCCN2CCCCC2)nc2ccccc12", "note": "[Example 8, 4-Methyl-N-[3-(1-piperidinyl)propyl]-2-quinolinamine (E)-2-butenedioate (1:1) hemihydrate]", "values": [{"measurement": "M2/M1", "setting": "[3]", "result": 11}, {"measurement": "IC50", "setting": "[1]; read-out: ^3 H-QNB M2 IC50", "result": 4.6, "unit": "µM"}, {"measurement": "IC50", "setting": "[2]; [5]", "result": 420, "unit": "nM"}]}, {"compound": "CCc1cc(NCCCN2CCOCC2)nc2ccccc12", "note": "[Example 9, 4-Ethyl-N-[3-(4-morpholinyl)propyl]-2-quinolinamine dihydrochloride three quarter hydrate]", "values": [{"measurement": "M2/M1", "setting": "[3]", "result": 22}, {"measurement": "IC50", "setting": "[1]; read-out: ^3 H-QNB M2 IC50", "result": 44, "unit": "µM"}, {"measurement": "IC50", "setting": "[2]; [5]", "result": 2000, "unit": "nM"}]}, {"compound": "c1ccc2c(C3CCCCC3)cc(NCCCN3CCOCC3)nc2c1", "note": "[Example 10, 4-Cyclohexyl-N-[3-(4-morpholinyl)propyl]-2-quinolinamine dihydrochlorideone quarter hydrate]", "values": [{"measurement": "M2/M1", "setting": "[3]", "result": 6}, {"measurement": "IC50", "setting": "[1]; read-out: ^3 H-QNB M2 IC50", "result": 13, "unit": "µM"}, {"measurement": "IC50", "setting": "[2]; [5]", "result": 2300, "unit": "nM"}]}, {"compound": "CCN(CC)CCCNc1cc(C)c2ccccc2n1", "note": "[Example 11, N,N-Diethyl-N'-(4-methyl-2-quinolinyl)-1,3-propanediamine dihydrochloride hemihydrate]", "values": [{"measurement": "M2/M1", "setting": "[3]", "result": 86}, {"measurement": "IC50", "setting": "[1]; read-out: ^3 H-QNB M2 IC50", "result": 18, "unit": "µM"}, {"measurement": "IC50", "setting": "[2]; [5]", "result": 210, "unit": "nM"}]}, {"compound": "Cc1cc(NCCN(C)C)nc2ccccc12.O=C(O)/C=C/C(=O)O", "note": "[Example 12, N,N-Dimethyl-N'-(4-methyl-2-quinolinyl)-1,2-ethanediamine (E)-2-butenedioate (1:1)]", "values": [{"measurement": "M2/M1", "setting": "[3]", "result": 27}, {"measurement": "IC50", "setting": "[1]; read-out: ^3 H-QNB M2 IC50", "result": 35, "unit": "µM"}, {"measurement": "IC50", "setting": "[2]; [5]", "result": 1320, "unit": "nM"}]}, {"compound": "Cc1cc(NCCCN(C)C)nc2ccccc12.O=C(O)/C=C/C(=O)O.O=C(O)/C=C/C(=O)O", "note": "[Example 13, N,N-Dimethyl-N'-(4-methyl-2-quinolinyl)-1,3-propanediamine (E)-2-butenedioate (1:2)]", "values": [{"measurement": "M2/M1", "setting": "[3]", "result": 26}, {"measurement": "IC50", "setting": "[1]; read-out: ^3 H-QNB M2 IC50", "result": 21, "unit": "µM"}, {"measurement": "IC50", "setting": "[2]; [5]", "result": 820, "unit": "nM"}]}, {"compound": "O=C1CCCN1CC#CCN1CCCC1", "note": "[Oxotremorine sesquifumarate, reference compound]", "values": [{"measurement": "IC50", "setting": "[1]", "result": 1.3, "unit": "µM"}, {"measurement": "IC50", "setting": "[2]", "result": 110, "unit": "nM"}]}, {"compound": "O=C1CCCN1CC#CCN1CCCC1", "note": "[Oxotremorine]", "values": [{"measurement": "minimal effective dose", "setting": "[4]; Rattus norvegicus, ip, read-out: minimum effective dose", "result": 0.3, "unit": "mg/kg"}, {"measurement": "effect on scopolamine hyperactivity at lower doses", "setting": "[4]; doses below 0.3 mg/kg", "result": "some effect of oxotremorine was seen at lower doses"}, {"measurement": "Total activity", "setting": "[4]; scopolamine + oxotremorine 0.03 mg/kg, 15 min", "result": 3020}, {"measurement": "Total activity", "setting": "[4]; scopolamine + oxotremorine 0.03 mg/kg, 30 min", "result": 4083}, {"measurement": "Total activity", "setting": "[4]; scopolamine + oxotremorine 0.03 mg/kg, 45 min", "result": 3332}, {"measurement": "Total activity", "setting": "[4]; scopolamine + oxotremorine 0.03 mg/kg, 60 min", "result": 2265}, {"measurement": "Total activity", "setting": "[4]; scopolamine + oxotremorine 0.1 mg/kg, 15 min", "result": 5709}, {"measurement": "Total activity", "setting": "[4]; scopolamine + oxotremorine 0.1 mg/kg, 30 min", "result": 4305}, {"measurement": "Total activity", "setting": "[4]; scopolamine + oxotremorine 0.1 mg/kg, 45 min", "result": 3725}, {"measurement": "Total activity", "setting": "[4]; scopolamine + oxotremorine 0.1 mg/kg, 60 min", "result": 2571}, {"measurement": "Total activity", "setting": "[4]; scopolamine + oxotremorine 0.3 mg/kg, 15 min", "result": 2523}, {"measurement": "Total activity", "setting": "[4]; scopolamine + oxotremorine 0.3 mg/kg, 30 min", "result": 1819}, {"measurement": "Total activity", "setting": "[4]; scopolamine + oxotremorine 0.3 mg/kg, 45 min", "result": 2351}, {"measurement": "Total activity", "setting": "[4]; scopolamine + oxotremorine 0.3 mg/kg, 60 min", "result": 1573}]}]}
